Measured values: patent US20110039721A1, “METHOD FOR PREDICTION ABOUT CARCINOGENICITY OF SUBSTANCE IN RODENT” (Chemicals Evaluation and Research Institute, priority 2007, published 2011)

Columns and labels:
[1] = system: rodent; conditions: in vivo; cited from earlier work
[2] = system: mRNA expressed from the genes (A) to (D) in rat liver; assay: Behavior of genes (mRNA expression level, oligo-DNA microarray) in rat liver after 28-day oral administration; assay type: in vivo
Summary of the method: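 Male F344 SPF rats, 5 weeks old, four per group, received carcinogens, non-carcinogens or solvent vehicle by oral gavage once daily for 28 days. Liver total RNA was then extracted. Changes of ≥1.5-fold or ≤1/1.5 versus vehicle control, in a consistent direction across carcinogens, counted as significant.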

[3] = system: liver; conditions: in vivo; cited from earlier work
[4] = gene group (A), Unigene No. Rn.167075
[5] = gene group (C), Unigene No. Rn.120914

OCCCl [TS032, 2-Chloroethanol]
Carcinogenicity [1]: C−
Behavior of gene caused by administration of chemical substance, Gene No. 154 ([2]; rat, in vivo): −
Behavior of gene caused by administration of chemical substance, Gene No. 533 ([2]; rat, in vivo): −
Behavior of gene caused by administration of chemical substance, Gene No. 725 ([2]; rat, in vivo): −
Behavior of gene caused by administration of chemical substance, Gene No. 813 ([2]; rat, in vivo): −
Behavior of gene caused by administration of chemical substance, Gene No. 893 ([2]; rat, in vivo): −
Behavior of gene caused by administration of chemical substance, Gene No. 1119 ([2]; rat, in vivo): −
Behavior of gene caused by administration of chemical substance, Gene No. 1131 ([2]; rat, in vivo): −
Behavior of gene caused by administration of chemical substance, Gene No. 1163 ([2]; rat, in vivo): −
Behavior of gene caused by administration of chemical substance, Gene No. 1334 ([2]; rat, in vivo): −
Behavior of gene caused by administration of chemical substance, Gene No. 1494 ([2]; rat, in vivo): −
Behavior of gene caused by administration of chemical substance, Gene No. 1562 ([2]; rat, in vivo): −
Behavior of gene caused by administration of chemical substance, Gene No. 1741 ([2]; rat, in vivo): −
Behavior of gene caused by administration of chemical substance, Gene No. 1993 ([2]; rat, in vivo): −
Behavior of gene caused by administration of chemical substance, Gene No. 2026 ([2]; rat, in vivo): −
Behavior of gene caused by administration of chemical substance, Gene No. 2045 ([2]; rat, in vivo): −
Behavior of gene caused by administration of chemical substance, Gene No. 2203 ([2]; rat, in vivo): −
Behavior of gene caused by administration of chemical substance, Gene No. 2494 ([2]; rat, in vivo): −
Behavior of gene caused by administration of chemical substance, Gene No. 2546 ([2]; rat, in vivo): −
Behavior of gene caused by administration of chemical substance, Gene No. 3776 ([2]; rat, in vivo): −
Behavior of gene caused by administration of chemical substance, Gene No. 3929 ([2]; rat, in vivo): −
Behavior of gene caused by administration of chemical substance, Gene No. 4095 ([2]; rat, in vivo): −
Behavior of gene caused by administration of chemical substance, Gene No. 4218 ([2]; rat, in vivo): −
Behavior of gene caused by administration of chemical substance, Gene No. 4846 ([2]; rat, in vivo): −
Behavior of gene caused by administration of chemical substance, Gene No. 4973 ([2]; rat, in vivo): −
Behavior of gene caused by administration of chemical substance, Gene No. 5600 ([2]; rat, in vivo): −
Behavior of gene caused by administration of chemical substance, Gene No. 5634 ([2]; rat, in vivo): −
Behavior of gene caused by administration of chemical substance, Gene No. 5726 ([2]; rat, in vivo): −
Behavior of gene caused by administration of chemical substance, Gene No. 5878 ([2]; rat, in vivo): −
Behavior of gene caused by administration of chemical substance, Gene No. 6026 ([2]; rat, in vivo): −
Behavior of gene caused by administration of chemical substance, Gene No. 6182 ([2]; rat, in vivo): −
Behavior of gene caused by administration of chemical substance, Gene No. 6303 ([2]; rat, in vivo): −
Behavior of gene caused by administration of chemical substance, Gene No. 6620 ([2]; rat, in vivo): −
Behavior of gene caused by administration of chemical substance, Gene No. 6742 ([2]; rat, in vivo): −
Liver carcinogenicity [3]: Cr−

CCC[N+](=O)[O-] [TS036, 1-Nitropropane]
Carcinogenicity [1]: C−
Behavior of gene caused by administration of chemical substance, Gene No. 4846 ([2]; gene group (A), Unigene No. Rn.144554): −
Behavior of gene caused by administration of chemical substance, Gene No. 2026 [2, 4]: −
Behavior of gene caused by administration of chemical substance, Gene No. 4218 [2, 4]: −
Behavior of gene caused by administration of chemical substance, Gene No. 6182 ([2]; gene group (A), Unigene No. Rn.5834): −
Behavior of gene caused by administration of chemical substance, Gene No. 5600 ([2]; gene group (A), Unigene No. Rn.9836): −
Behavior of gene caused by administration of chemical substance, Gene No. 1494 ([2]; gene group (B), Unigene No. Rn.1430): −
Behavior of gene caused by administration of chemical substance, Gene No. 2045 ([2]; gene group (B), Unigene No. Rn.19329): −
Behavior of gene caused by administration of chemical substance, Gene No. 2203 ([2]; gene group (B), Unigene No. Rn.21240): −
Behavior of gene caused by administration of chemical substance, Gene No. 533 ([2]; gene group (C), Unigene No. Rn.106184): −
Behavior of gene caused by administration of chemical substance, Gene No. 725 ([2]; gene group (C), Unigene No. Rn.108075): +
Behavior of gene caused by administration of chemical substance, Gene No. 1163 ([2]; gene group (C), Unigene No. Rn.11766): −
Behavior of gene caused by administration of chemical substance, Gene No. 4973 ([2]; gene group (C), Unigene No. Rn.118529): +
Behavior of gene caused by administration of chemical substance, Gene No. 4095 ([2]; gene group (C), Unigene No. Rn.119024): +
Behavior of gene caused by administration of chemical substance, Gene No. 1334 [2, 5]: −
Behavior of gene caused by administration of chemical substance, Gene No. 6620 [2, 5]: −
Behavior of gene caused by administration of chemical substance, Gene No. 6303 ([2]; gene group (C), Unigene No. Rn.123063): −
Behavior of gene caused by administration of chemical substance, Gene No. 5878 ([2]; gene group (C), Unigene No. Rn.143213): +
Behavior of gene caused by administration of chemical substance, Gene No. 1131 ([2]; gene group (C), Unigene No. Rn.144946): +
Behavior of gene caused by administration of chemical substance, Gene No. 1562 ([2]; gene group (C), Unigene No. Rn.14744): +
Behavior of gene caused by administration of chemical substance, Gene No. 1741 ([2]; gene group (C), Unigene No. Rn.1647): +
Behavior of gene caused by administration of chemical substance, Gene No. 893 ([2]; gene group (C), Unigene No. Rn.164817): +
Behavior of gene caused by administration of chemical substance, Gene No. 6026 ([2]; gene group (C), Unigene No. Rn.167685): −
Behavior of gene caused by administration of chemical substance, Gene No. 154 ([2]; gene group (C), Unigene No. Rn.185941): +
Behavior of gene caused by administration of chemical substance, Gene No. 1993 ([2]; gene group (C), Unigene No. Rn.18728): +
Behavior of gene caused by administration of chemical substance, Gene No. 813 ([2]; gene group (C), Unigene No. Rn.201760): −
Behavior of gene caused by administration of chemical substance, Gene No. 2494 ([2]; gene group (C), Unigene No. Rn.23969): −
Behavior of gene caused by administration of chemical substance, Gene No. 2546 ([2]; gene group (C), Unigene No. Rn.24561): +
Behavior of gene caused by administration of chemical substance, Gene No. 3776 ([2]; gene group (C), Unigene No. Rn.43232): +
Behavior of gene caused by administration of chemical substance, Gene No. 3929 ([2]; gene group (C), Unigene No. Rn.4620): +
Behavior of gene caused by administration of chemical substance, Gene No. 1119 ([2]; gene group (C), Unigene No. Rn.9757): +
Behavior of gene caused by administration of chemical substance, Gene No. 6742 ([2]; gene group (C), Unigene No. Rn.9779): −
Behavior of gene caused by administration of chemical substance, Gene No. 5634 ([2]; gene group (C), Unigene No. Rn.9862): −
Behavior of gene caused by administration of chemical substance, Gene No. 5726 ([2]; gene group (D), Unigene No. Rn.9939): −
Liver carcinogenicity [3]: Cr−
